Converted amounts (≈) assume the structure as drawn.
The molecules below were run on E. coli (25922) (assay: MIC assay (Table 1)). Details: Escherichia coli, isolate 25922.
Format: cell-based

Structure (SMILES)	MIC50
NCCCOc1cc(OCCCN)cc(-c2cc(-c3cc(OCCCN)cc(OCCCN)c3)cc(-c3cc4ccccc4[nH]3)c2)c1 [Compound 108]	6.25 µg/mL (≈ 9.8 µM)
N=C(N)NCCCOc1cc(OCCCNC(=N)N)cc(-c2cccc(-c3cc(OCCCNC(=N)N)cc(OCCCNC(=N)N)c3)c2)c1 [Compound 109]	1.56 µg/mL (≈ 2.26 µM)
Cc1ccc(-c2cc(-c3cc(OCCCN)cc(OCCCN)c3)cc(-c3cc(OCCCN)cc(OCCCN)c3)c2)cc1 [Compound 110]	3.13 µg/mL (≈ 5.11 µM)
NCCCOc1cc(OCCCN)cc(-c2cccc(-c3cc(OCCCN)cc(OCCCN)c3)c2)c1 [Compound 111]	50 µg/mL (≈ 95.7 µM)

What follows are molecules tested on S. aureus (27660) (assay: MIC assay (Table 1)). Details: Staphylococcus aureus, isolate 27660.
Format: cell-based

Structure (SMILES)	MIC50
NCCCOc1cc(OCCCN)cc(-c2cc(-c3cc(OCCCN)cc(OCCCN)c3)cc(-c3cc4ccccc4[nH]3)c2)c1 [Compound 108]	1.56 µg/mL (≈ 2.45 µM)
N=C(N)NCCCOc1cc(OCCCNC(=N)N)cc(-c2cccc(-c3cc(OCCCNC(=N)N)cc(OCCCNC(=N)N)c3)c2)c1 [Compound 109]	0.4 µg/mL (≈ 0.579 µM)
Cc1ccc(-c2cc(-c3cc(OCCCN)cc(OCCCN)c3)cc(-c3cc(OCCCN)cc(OCCCN)c3)c2)cc1 [Compound 110]	0.78 µg/mL (≈ 1.27 µM)
NCCCOc1cc(OCCCN)cc(-c2cccc(-c3cc(OCCCN)cc(OCCCN)c3)c2)c1 [Compound 111]	12.5 µg/mL (≈ 23.9 µM)

The molecules below were run on E. faecalis (29212) (assay: MIC assay (Table 1)). Details: Enterococcus faecalis, isolate 29212.
Format: cell-based
Protocol: (§1) The compounds are screened for antimicrobial activity against a number of clinically relevant pathogens. Minimum Inhibitory Concentrations (MIC) of each of the compounds are determined using standard procedures for clinical ocular isolates of Ciprofloxacin Susceptible (CS) S. aureus (CSSA), Ciprofloxacin Resistant (CR) S. aureus (CRSA), CS S. epidermidis (CSSE), CR S. epidermidis (CRSE), St. pneumoniae (SP), St. viridans group (SV), Moraxella Species (MS) (including Moraxella catarrhalis), H. influenzae (HI), P. aeruginosa (PA), Serratia marcescens (SM), S. aureus fluoroquinolone-susceptible, S. aureus fluoroquinolone-resistant, S. epidermidis (Coagulase-negative Staphylococcus) fluoroquinolone-susceptible, S. epidermidis (Coagulase-negative Staphylococcus) fluoroquinolone-resistant, and Serratia marcescens.
(§2) On the day of testing, a 640 μg/m (1280 μg/m for Serratia marcescens and Pseudomonas aeruginosa) concentration is prepared from a 1% stock solution in 0.01% acetic acid, 0.2% BSA in polypropylene tubes.
(§3) Ten μl of diluted 10× test agents is added to each well of one row of the 96 well polypropylene plates from column 2 to column 12 (column 1 is a control for bacteria alone, with no peptide). […] The same peptide is in each of the 8 rows. One plate contains dilutions of one test agent and 8 bacterial isolates.
(§4) Ninety μl of the bacterial suspensions is dispensed in each well from column 1 to column 12. Each bacterial isolate is placed in one row of a 96 well polypropylene plate containing the test agents. The plates are placed on shaker at 15 minutes at room temperature, and then incubated at 37° C. overnight. MICs are determined visually as the lowest concentration of drug that inhibits visible bacterial growth.
(§5) Data is expressed as MIC50 in μg/ml. The bacterial isolates were as follows: E. coli (25922); S. aureus (27660); E. faecalis (29212); P. aeruginosa (10145); and K. pneumoniae (13883).

Structure (SMILES)	MIC50
NCCCOc1cc(OCCCN)cc(-c2cc(-c3cc(OCCCN)cc(OCCCN)c3)cc(-c3cc4ccccc4[nH]3)c2)c1 [Compound 108]	12.5 µg/mL (≈ 19.6 µM)
N=C(N)NCCCOc1cc(OCCCNC(=N)N)cc(-c2cccc(-c3cc(OCCCNC(=N)N)cc(OCCCNC(=N)N)c3)c2)c1 [Compound 109]	1.56 µg/mL (≈ 2.26 µM)
Cc1ccc(-c2cc(-c3cc(OCCCN)cc(OCCCN)c3)cc(-c3cc(OCCCN)cc(OCCCN)c3)c2)cc1 [Compound 110]	1.56 µg/mL (≈ 2.55 µM)
NCCCOc1cc(OCCCN)cc(-c2cccc(-c3cc(OCCCN)cc(OCCCN)c3)c2)c1 [Compound 111]	50 µg/mL (≈ 95.7 µM)

Each molecule was assayed on K. pneumoniae (13883) (assay: MIC assay (Table 1)). Details: Klebsiella pneumoniae, isolate 13883, read-out: MIC50 K. Pnuemnoiae.
Format: cell-based
Protocol: as §1, §2, §3, §4, §5

Structure (SMILES)	MIC50
NCCCOc1cc(OCCCN)cc(-c2cc(-c3cc(OCCCN)cc(OCCCN)c3)cc(-c3cc4ccccc4[nH]3)c2)c1 [Compound 108]	> 50 µg/mL
N=C(N)NCCCOc1cc(OCCCNC(=N)N)cc(-c2cccc(-c3cc(OCCCNC(=N)N)cc(OCCCNC(=N)N)c3)c2)c1 [Compound 109]	6.25 µg/mL (≈ 9.05 µM)
Cc1ccc(-c2cc(-c3cc(OCCCN)cc(OCCCN)c3)cc(-c3cc(OCCCN)cc(OCCCN)c3)c2)cc1 [Compound 110]	6.25 µg/mL (≈ 10.2 µM)
NCCCOc1cc(OCCCN)cc(-c2cccc(-c3cc(OCCCN)cc(OCCCN)c3)c2)c1 [Compound 111]	> 50 µg/mL

The molecules below were run on P. aeruginosa (10145) (assay: MIC assay (Table 1)). Details: Pseudomonas aeruginosa, isolate 10145.
Format: cell-based

Structure (SMILES)	MIC50
NCCCOc1cc(OCCCN)cc(-c2cc(-c3cc(OCCCN)cc(OCCCN)c3)cc(-c3cc4ccccc4[nH]3)c2)c1 [Compound 108]	25 µg/mL (≈ 39.2 µM)
N=C(N)NCCCOc1cc(OCCCNC(=N)N)cc(-c2cccc(-c3cc(OCCCNC(=N)N)cc(OCCCNC(=N)N)c3)c2)c1 [Compound 109]	12.5 µg/mL (≈ 18.1 µM)
Cc1ccc(-c2cc(-c3cc(OCCCN)cc(OCCCN)c3)cc(-c3cc(OCCCN)cc(OCCCN)c3)c2)cc1 [Compound 110]	25 µg/mL (≈ 40.8 µM)
NCCCOc1cc(OCCCN)cc(-c2cccc(-c3cc(OCCCN)cc(OCCCN)c3)c2)c1 [Compound 111]	> 50 µg/mL

These molecules were tested on Escherichia coli (assay: Antimicrobial activity (MIC) of aryl compounds (Table 2)). Details: Escherichia coli; Table 2.
Format: cell-based
Excerpt: (§6) A new series of aryl compounds was designed to evaluate the effect of charge and aromatic group hydrophobicity on the biological activity while still maintaining an amphiphilic topology. Four and six cationic charges were investigated, and three different central rings were used to tune the overall hydrophobicity: benzene, naphthalene, and phenylbenzene. The hydrophobicities of the aryl compounds were quantified using reversed-phase HPLC retention times (Rt). The antimicrobial activities (expressed as minimum inhibitory concentration (MIC)) of these compounds were tested against four pathogens, including both Gram-negative and Gram-positive bacteria, and their hemolysis (evaluated in terms of HC50, the lowest concentration that causes 50% hemolysis of red blood cells (RBCs)) was tested against human RBCs.

Structure (SMILES)	MIC
NCCCOc1cc(OCCCN)cc(-c2cccc(-c3cc(OCCCN)cc(OCCCN)c3)c2)c1 [Compound 111]	50 µg/mL (≈ 95.7 µM)

Same assay, conditions: HC50/MIC

Structure (SMILES)	Selectivity (HC50/MIC) E. coli
NCCCOc1cc(OCCCN)cc(-c2cccc(-c3cc(OCCCN)cc(OCCCN)c3)c2)c1 [Compound 111]	>20

What follows are molecules tested on Staphylococcus aureus in the same assay as above. Details: HC50/MIC.
Format: cell-based
Excerpt: as §6

Structure (SMILES)	Selectivity (HC50/MIC) S. aureus
NCCCOc1cc(OCCCN)cc(-c2cccc(-c3cc(OCCCN)cc(OCCCN)c3)c2)c1 [Compound 111]	>80

Same assay, conditions: Staphylococcus aureus; Table 2; read-out: MIC S. aureus

Structure (SMILES)	MIC
NCCCOc1cc(OCCCN)cc(-c2cccc(-c3cc(OCCCN)cc(OCCCN)c3)c2)c1 [Compound 111]	12.5 µg/mL (≈ 23.9 µM)

The molecules below were run on NIH/3T3 cells (assay: Cytotoxicity colorimetric assay). Details: Mus musculus, NIH3T3, 1 h, one hour incubation in serum-free media.
Format: cell-based
Protocol: Cytotoxicity of the compounds are evaluated in a colorimetric assay using a transformed human liver cell line (HepG2, HB-8065) and an embryonic mouse cell line (NIH/3T3 cells, CRL-1658). This assay measures the bioreduction of a novel tetrazolium compound to a soluble formazan product by viable cells. HepG2 cells are seeded in 96 well plates at 2×10^4 cells/well in MEM medium with 10% fetal bovine serum (FBS) 24 hours prior to use. NIH/3T3 cells are seeded in 96 well plates at 2×10^4 cells/well in DMEM medium with 10% bovine calf serum (BCS) 24 hours prior to use. Cell monolayers are rinsed in serum-free media and incubated for one hour with a Compound in serum-free media. After incubation, the media is replaced with serum supplemented media and live cells are measured using the Cell Titer 96 Aqueous […] Assay kit (Promega, Madison, Wis.). EC50 values are determined using a four parameter logistic equation: Y=Bottom+(Top−Bottom)/(1+10^((Log EC50−X)*HillSlope)). […] Data is expressed as EC50 in μg/ml. Cytotoxicity is evaluated in a colorimetric assay using a transformed human liver cell line (HepG2, HB-8065) and an embryonic mouse cell line (NIH/3T3 cells, CRL-1658). This assay measures the bioreduction of a novel tetrazolium compound to a soluble formazan product by viable cells. HepG2 cells are seeded in 96 well plates at 3×10^4 cells/well in MEM medium with 10% fetal bovine serum (FBS) 24 hours prior to use. NIH/3T3 cells are seeded in 96 well plates at 2×10^4 cells/well in DMEM medium with 10% bovine calf serum (BCS) 24 hours prior to use. Cell monolayers are rinsed in serum-free media and incubated for one hour with test agent in serum-free media. After incubation, the media is replaced with serum supplemented media and live cells are measured using the Cell Titer 96 Aqueous […] Assay kit (Promega, Madison, Wis.). EC50 values are determined using a four parameter logistic equation: Y=Bottom+(Top−Bottom)/(1+10^((Log EC50−X)*HillSlope)).

Structure (SMILES)	EC50
N=C(N)NCCCOc1cc(OCCCNC(=N)N)cc(-c2cccc(-c3cc(OCCCNC(=N)N)cc(OCCCNC(=N)N)c3)c2)c1 [Compound 109]	69 µg/mL (≈ 99.9 µM)
Cc1ccc(-c2cc(-c3cc(OCCCN)cc(OCCCN)c3)cc(-c3cc(OCCCN)cc(OCCCN)c3)c2)cc1 [Compound 110]	129 µg/mL (≈ 211 µM)
NCCCOc1cc(OCCCN)cc(-c2cccc(-c3cc(OCCCN)cc(OCCCN)c3)c2)c1 [Compound 111]	814 µg/mL (≈ 1560 µM)

What follows are molecules tested on HepG2 (assay: Cytotoxicity colorimetric assay). Details: Homo sapiens, HepG2, 1 h, one hour incubation in serum-free media.
Format: cell-based
Protocol: Cytotoxicity of the compounds are evaluated in a colorimetric assay using a transformed human liver cell line (HepG2, HB-8065) and an embryonic mouse cell line (NIH/3T3 cells, CRL-1658). This assay measures the bioreduction of a novel tetrazolium compound to a soluble formazan product by viable cells. HepG2 cells are seeded in 96 well plates at 2×10^4 cells/well in MEM medium with 10% fetal bovine serum (FBS) 24 hours prior to use. NIH/3T3 cells are seeded in 96 well plates at 2×10^4 cells/well in DMEM medium with 10% bovine calf serum (BCS) 24 hours prior to use. Cell monolayers are rinsed in serum-free media and incubated for one hour with a Compound in serum-free media. After incubation, the media is replaced with serum supplemented media and live cells are measured using the Cell Titer 96 Aqueous […] Assay kit (Promega, Madison, Wis.). EC50 values are determined using a four parameter logistic equation: Y=Bottom+(Top−Bottom)/(1+10^((Log EC50−X)*HillSlope)). Actual results from a representative cytotoxicity assay are shown below in Table 3. Data is expressed as EC50 in μg/ml. Cytotoxicity is evaluated in a colorimetric assay using a transformed human liver cell line (HepG2, HB-8065) and an embryonic mouse cell line (NIH/3T3 cells, CRL-1658). This assay measures the bioreduction of a novel tetrazolium compound to a soluble formazan product by viable cells. HepG2 cells are seeded in 96 well plates at 3×10^4 cells/well in MEM medium with 10% fetal bovine serum (FBS) 24 hours prior to use. NIH/3T3 cells are seeded in 96 well plates at 2×10^4 cells/well in DMEM medium with 10% bovine calf serum (BCS) 24 hours prior to use. Cell monolayers are rinsed in serum-free media and incubated for one hour with test agent in serum-free media. After incubation, the media is replaced with serum supplemented media and live cells are measured using the Cell Titer 96 Aqueous […] Assay kit (Promega, Madison, Wis.). EC50 values are determined using a four parameter logistic equation: Y=Bottom+(Top−Bottom)/(1+10^((Log EC50−X)*HillSlope)).

Structure (SMILES)	EC50
NCCCOc1cc(OCCCN)cc(-c2cccc(-c3cc(OCCCN)cc(OCCCN)c3)c2)c1 [Compound 111]	> 1020 µg/mL

Reference: US9469616B2, “Cyclic compounds and methods of making and using the same” (Cellceutix Corporation, priority 2011, dated 2016)
